Experimental data taken from patent US20140137294A1, “GLUCOSINOLATE TRANSPORTER PROTEIN AND USES THEREOF” (UNIVERSITY OF COPENHAGEN, priority 2010, published 2014).

Target: T1, AtGTR2 (Arabidopsis thaliana, UniProt Q9LV10)
T1 construct: expressed in transfected cells; host or cells: Xenopus oocytes injected with in vitro transcribed cRNA (vector pNB1u)
T1 sequence (Q9LV10 1-616): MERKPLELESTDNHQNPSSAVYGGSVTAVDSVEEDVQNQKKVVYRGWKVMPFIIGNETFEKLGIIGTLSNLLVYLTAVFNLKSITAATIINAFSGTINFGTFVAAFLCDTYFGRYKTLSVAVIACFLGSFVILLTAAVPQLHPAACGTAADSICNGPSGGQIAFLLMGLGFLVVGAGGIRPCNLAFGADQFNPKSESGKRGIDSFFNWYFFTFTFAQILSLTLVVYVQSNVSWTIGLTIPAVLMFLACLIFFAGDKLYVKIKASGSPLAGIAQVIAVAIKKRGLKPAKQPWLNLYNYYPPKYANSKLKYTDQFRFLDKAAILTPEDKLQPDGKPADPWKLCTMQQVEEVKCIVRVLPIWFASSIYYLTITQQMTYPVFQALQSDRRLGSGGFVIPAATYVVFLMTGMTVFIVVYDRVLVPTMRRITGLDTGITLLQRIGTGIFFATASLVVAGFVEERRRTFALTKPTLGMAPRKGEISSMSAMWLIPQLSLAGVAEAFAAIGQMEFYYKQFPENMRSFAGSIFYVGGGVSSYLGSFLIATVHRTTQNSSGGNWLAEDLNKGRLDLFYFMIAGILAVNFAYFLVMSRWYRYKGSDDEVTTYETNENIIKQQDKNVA
Assay: Uptake of C14-labeled pOHBG in AtGTR2 expressing oocytes in presence of excess competitor
Format: cell-based
Conditions: 50× excess unlabeled competitor, AtGTR2, pH 5
Protocol: FIG. 3: Biochemical analysis of AtGTR1 and 2 mediated GSL transport in Xenopus oocytes. A and B, pH dependence of AtGTR-mediated GSL transport. A, AtGTR2 mediated 4-MTB uptake measured by LC-MS analysis of oocyte extracts, n=3 oocytes. B, AtGTR1 currents induced by 1 mM 4-MTB were measured at different membrane potentials at pH 5 ([…]), pH 6 (♦), and pH 7 (▴). Currents were normalized to the current induced at pH 5 at −60 mV, error bars are SD, n=4 oocytes. C and D, kinetic analysis of AtGTR-mediated glucosinolate transport. […]
The substrate specificity investigations were extended to include substrates previously identified for the NRT/PTR transporter family namely di- and tripeptides and nitrate. […] However, perfusing with 1 mM NO3^− did result in currents but these amounted only to 1/10th of currents measured when perfusing with 100 μM 4-MTB (FIG. 3F). […]
For assays with radiolabeled substrates, single oocytes were ruptured in 100 μl 10% SDS in 4 ml scintillation vials by shaking for 20-30 minutes. 2.5 ml EcoScint™ scintillation fluid (National Diagnostics) was added, and imported compounds quantified by scintillation counting. For assays with unlabeled substrates, oocyte extracts were analysed by LC-MS. Oocytes were analyzed in batches of 5 oocytes per repetition. […]

CSCCCC/C(=N/OS(=O)(=O)O)S[C@@H]1O[C@H](CO)[C@@H](O)[C@H](O)[C@H]1O [4-MTB, 4-methylthiobutyl glucosinolate]
effect on uptake of 40 μM C14-labeled pOHBG: reduced the uptake of pOHBG to background levels
